Results: paper PMC5007443, “TNIK inhibition abrogates colorectal cancer stemness” (Nature Communications, 2016)
pIC50: −log10 of the molar value.

Tests used:
FGFR1 = FGFR1 (Homo sapiens, UniProt P11362); assay: Kinase selectivity profiling, Fibroblast growth factor receptor 1; assay type: biochemical; conditions: read-out: Percentage inhibition of FGFR1
Protocol: (§1) The selectivity of compounds against a panel of 50 human protein kinases was assessed using a non-radiometric assay.

HCT116 cells [1] = assay: In vivo tumorigenicity of pretreated HCT116 cells in NOD/ShiJic-scid mice; parameters: species or system mouse; conditions: HCT116, short-term in vitro treatment
Protocol: After washing off the compounds, 10,000, 1,000, 100 or 10 viable cells in culture medium containing 50% Matrigel (BD Biosciences) were injected subcutaneously into the flanks of NOD/ShiJic-scid Jcl (6-week-old male) mice. The number of mice that developed tumours was counted, and the frequency of cells with tumour-forming capability was calculated using the ELDA software.

JNK2 = JNK2 (Homo sapiens, UniProt P45984); assay: Kinase selectivity profiling, c-Jun kinase 2; assay type: biochemical; conditions: read-out: Percentage inhibition of JNK2
Sequence of JNK2 (P45984 whole entry): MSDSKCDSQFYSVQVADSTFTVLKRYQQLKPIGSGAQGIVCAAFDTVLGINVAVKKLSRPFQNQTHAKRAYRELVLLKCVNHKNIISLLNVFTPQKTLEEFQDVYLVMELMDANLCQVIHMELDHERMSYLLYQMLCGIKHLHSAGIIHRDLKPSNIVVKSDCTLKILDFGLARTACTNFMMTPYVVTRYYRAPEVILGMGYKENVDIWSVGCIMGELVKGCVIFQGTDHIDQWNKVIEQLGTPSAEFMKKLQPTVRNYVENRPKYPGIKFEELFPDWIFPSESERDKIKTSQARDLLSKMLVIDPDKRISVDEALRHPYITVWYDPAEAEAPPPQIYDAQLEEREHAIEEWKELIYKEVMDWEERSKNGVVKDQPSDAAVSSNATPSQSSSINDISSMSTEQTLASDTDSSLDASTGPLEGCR
Protocol: as §1

PAK2 = PAK2 (Homo sapiens, UniProt Q13177); assay: Kinase selectivity profiling, P21 protein (Cdc42/Rac)-activated kinase 2; assay type: biochemical; conditions: read-out: Percentage inhibition of PAK2
Protocol: as §1

CK1ε = CK1ε (Homo sapiens, UniProt P49674); assay: Kinase selectivity profiling, Casein kinase 1ε; assay type: biochemical; conditions: read-out: Percentage inhibition of CK1ε
Sequence of CK1ε (P49674 whole entry): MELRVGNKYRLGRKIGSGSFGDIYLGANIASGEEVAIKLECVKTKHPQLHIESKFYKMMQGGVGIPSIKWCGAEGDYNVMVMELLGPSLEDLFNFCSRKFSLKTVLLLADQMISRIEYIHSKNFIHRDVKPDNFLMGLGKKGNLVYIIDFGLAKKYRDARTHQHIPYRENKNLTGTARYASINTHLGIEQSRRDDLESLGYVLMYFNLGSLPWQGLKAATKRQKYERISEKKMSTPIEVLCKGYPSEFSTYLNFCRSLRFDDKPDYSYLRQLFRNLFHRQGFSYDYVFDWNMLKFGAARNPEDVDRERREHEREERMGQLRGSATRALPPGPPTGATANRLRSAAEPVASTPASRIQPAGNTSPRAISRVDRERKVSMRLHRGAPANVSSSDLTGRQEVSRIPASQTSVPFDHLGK
Protocol: as §1

AMPKα1/β1/γ1 = AMPKα1/β1/γ1 (Homo sapiens, UniProt Q13131); assay: Kinase selectivity profiling, AMP-activated protein kinase; assay type: biochemical; conditions: read-out: Percentage inhibition of AMPKα1/β1/γ1
Protocol: as §1

DAPK1 = DAPK1 (Homo sapiens, UniProt P53355); assay: Kinase selectivity profiling, Death-associated protein kinase 1; assay type: biochemical; conditions: read-out: Percentage inhibition of DAPK1
Protocol: as §1

GSK3β = GSK3β (Homo sapiens, UniProt P49841); assay: Kinase selectivity profiling, Glycogen synthase kinase 3β; assay type: biochemical; conditions: read-out: Percentage inhibition of GSK3β
Sequence of GSK3β (P49841 whole entry): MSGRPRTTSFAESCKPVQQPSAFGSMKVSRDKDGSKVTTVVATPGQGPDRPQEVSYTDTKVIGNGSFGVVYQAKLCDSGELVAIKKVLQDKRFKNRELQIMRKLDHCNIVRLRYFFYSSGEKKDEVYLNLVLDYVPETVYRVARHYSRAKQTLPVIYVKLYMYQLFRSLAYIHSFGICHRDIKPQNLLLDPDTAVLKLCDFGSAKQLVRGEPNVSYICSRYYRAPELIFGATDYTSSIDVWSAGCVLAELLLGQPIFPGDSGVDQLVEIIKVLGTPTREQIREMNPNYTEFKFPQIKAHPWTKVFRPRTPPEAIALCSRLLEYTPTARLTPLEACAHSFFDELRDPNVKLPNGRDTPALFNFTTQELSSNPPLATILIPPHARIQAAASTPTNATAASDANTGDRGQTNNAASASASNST
Protocol: as §1

MET = MET (Homo sapiens, UniProt P08581); assay: Kinase selectivity profiling, Hepatocyte growth factor receptor; assay type: biochemical; conditions: read-out: Percentage inhibition of MET
Sequence of MET (P08581 25-1390): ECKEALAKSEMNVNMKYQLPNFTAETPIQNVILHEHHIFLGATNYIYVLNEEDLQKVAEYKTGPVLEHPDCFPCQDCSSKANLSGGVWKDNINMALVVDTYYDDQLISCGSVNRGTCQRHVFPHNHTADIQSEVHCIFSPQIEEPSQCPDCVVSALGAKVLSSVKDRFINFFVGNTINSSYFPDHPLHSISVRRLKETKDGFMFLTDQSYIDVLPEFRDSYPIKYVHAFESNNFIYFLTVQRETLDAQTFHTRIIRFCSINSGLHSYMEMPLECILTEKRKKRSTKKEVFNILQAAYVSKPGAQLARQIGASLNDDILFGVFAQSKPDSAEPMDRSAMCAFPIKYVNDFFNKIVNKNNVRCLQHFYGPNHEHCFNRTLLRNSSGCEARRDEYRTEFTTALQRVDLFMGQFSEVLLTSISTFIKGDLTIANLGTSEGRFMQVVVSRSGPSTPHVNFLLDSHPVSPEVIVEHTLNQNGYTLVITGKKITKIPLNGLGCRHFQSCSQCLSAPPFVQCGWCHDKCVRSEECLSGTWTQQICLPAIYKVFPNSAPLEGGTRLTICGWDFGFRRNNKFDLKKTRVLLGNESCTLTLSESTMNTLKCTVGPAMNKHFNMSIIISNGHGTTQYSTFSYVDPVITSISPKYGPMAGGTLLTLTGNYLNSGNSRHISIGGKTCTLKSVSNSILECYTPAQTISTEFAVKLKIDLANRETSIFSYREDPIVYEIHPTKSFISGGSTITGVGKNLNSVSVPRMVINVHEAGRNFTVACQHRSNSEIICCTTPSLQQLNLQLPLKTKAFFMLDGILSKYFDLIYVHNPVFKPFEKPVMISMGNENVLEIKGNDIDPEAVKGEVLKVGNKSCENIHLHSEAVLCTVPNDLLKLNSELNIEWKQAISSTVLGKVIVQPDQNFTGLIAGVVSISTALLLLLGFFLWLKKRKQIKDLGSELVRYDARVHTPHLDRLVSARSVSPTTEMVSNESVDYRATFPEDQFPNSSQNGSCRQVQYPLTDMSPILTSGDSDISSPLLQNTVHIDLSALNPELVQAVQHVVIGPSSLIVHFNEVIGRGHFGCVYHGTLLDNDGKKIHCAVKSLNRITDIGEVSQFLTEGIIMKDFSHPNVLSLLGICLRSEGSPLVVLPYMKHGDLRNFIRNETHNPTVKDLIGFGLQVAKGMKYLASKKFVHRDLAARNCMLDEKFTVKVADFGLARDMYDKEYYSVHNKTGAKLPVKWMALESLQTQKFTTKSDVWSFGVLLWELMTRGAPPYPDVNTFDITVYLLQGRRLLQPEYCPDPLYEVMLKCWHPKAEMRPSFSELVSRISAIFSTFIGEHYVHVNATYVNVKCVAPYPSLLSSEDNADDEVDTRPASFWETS
Protocol: as §1

PDGFRα = PDGFRα (Homo sapiens, UniProt P16234); assay: Kinase selectivity profiling, Platelet-derived growth factor receptor α; assay type: biochemical; conditions: 0.1 µM inhibitor, ATP at Km; for inhibition at 0.1 µM: read-out: Percentage inhibition of PDGFRα
Sequence of PDGFRα (P16234 24-1089): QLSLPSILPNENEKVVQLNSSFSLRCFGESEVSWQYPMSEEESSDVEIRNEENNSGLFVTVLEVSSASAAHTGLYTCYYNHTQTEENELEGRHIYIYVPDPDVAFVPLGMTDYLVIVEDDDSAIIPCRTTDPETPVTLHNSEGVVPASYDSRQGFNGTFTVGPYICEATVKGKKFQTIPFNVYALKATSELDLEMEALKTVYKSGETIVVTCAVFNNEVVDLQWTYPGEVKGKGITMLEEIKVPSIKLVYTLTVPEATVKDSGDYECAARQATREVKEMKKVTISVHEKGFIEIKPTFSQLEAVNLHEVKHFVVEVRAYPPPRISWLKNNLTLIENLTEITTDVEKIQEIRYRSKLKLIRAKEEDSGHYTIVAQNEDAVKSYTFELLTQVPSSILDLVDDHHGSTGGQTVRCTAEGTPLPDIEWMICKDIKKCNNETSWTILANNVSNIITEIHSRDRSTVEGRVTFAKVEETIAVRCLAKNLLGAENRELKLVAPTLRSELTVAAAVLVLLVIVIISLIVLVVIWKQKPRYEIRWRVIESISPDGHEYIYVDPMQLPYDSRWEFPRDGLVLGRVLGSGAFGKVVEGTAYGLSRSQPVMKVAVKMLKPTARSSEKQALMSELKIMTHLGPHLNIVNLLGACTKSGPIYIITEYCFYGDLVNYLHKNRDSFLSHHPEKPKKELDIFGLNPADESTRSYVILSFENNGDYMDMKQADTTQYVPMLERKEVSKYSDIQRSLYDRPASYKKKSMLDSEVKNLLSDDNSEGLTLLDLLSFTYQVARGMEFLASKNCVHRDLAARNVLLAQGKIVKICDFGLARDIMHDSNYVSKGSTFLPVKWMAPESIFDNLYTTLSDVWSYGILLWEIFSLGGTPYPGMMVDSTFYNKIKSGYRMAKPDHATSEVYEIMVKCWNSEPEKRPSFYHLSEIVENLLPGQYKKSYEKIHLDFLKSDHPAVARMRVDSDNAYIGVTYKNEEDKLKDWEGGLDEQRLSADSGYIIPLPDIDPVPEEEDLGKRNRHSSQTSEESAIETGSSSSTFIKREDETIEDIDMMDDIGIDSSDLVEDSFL
Protocol: as §1

[2] = test system: patient-derived colorectal cancer spheroids #6; assay: ATP production of patient-derived spheroid #6; assay type: cell-based; conditions: Homo sapiens, 72 h; spheroid #6, 3 days
Protocol: Cells were seeded at a density of 3,000 cells per well in 96-well plates. Twenty-four hours after seeding, the cells were exposed to serially diluted compounds (0.003, 0.01, 0.03, 0.1, 0.3, 1, 3 and 10 μM) and incubated for 72 h (Fig. 3a). Patient-derived colorectal cancer spheroids were dissociated into single cells with Accutase (Nacalai Tesque) and seeded at a density of 3,000 cells per well into Ultra-Low attachment multiwall 96-well plates (Corning; Fig. 6d). ATP was measured with a CellTiter-Glo Luminescent Cell Viability Assay kit (Promega). Experiments were performed in triplicate and repeated at least two times.

EPHA2 = EPHA2 (Homo sapiens, UniProt P29317); assay: Kinase selectivity profiling, EPH receptor A2; assay type: biochemical; conditions: read-out: Percentage inhibition of EPHA2
Protocol: as §1

NEK2 = NEK2 (Homo sapiens, UniProt P51955); assay: Kinase selectivity profiling, Never in mitosis gene A-related kinase 2; assay type: biochemical; conditions: read-out: Percentage inhibition of NEK2
Sequence of NEK2 (P51955 whole entry): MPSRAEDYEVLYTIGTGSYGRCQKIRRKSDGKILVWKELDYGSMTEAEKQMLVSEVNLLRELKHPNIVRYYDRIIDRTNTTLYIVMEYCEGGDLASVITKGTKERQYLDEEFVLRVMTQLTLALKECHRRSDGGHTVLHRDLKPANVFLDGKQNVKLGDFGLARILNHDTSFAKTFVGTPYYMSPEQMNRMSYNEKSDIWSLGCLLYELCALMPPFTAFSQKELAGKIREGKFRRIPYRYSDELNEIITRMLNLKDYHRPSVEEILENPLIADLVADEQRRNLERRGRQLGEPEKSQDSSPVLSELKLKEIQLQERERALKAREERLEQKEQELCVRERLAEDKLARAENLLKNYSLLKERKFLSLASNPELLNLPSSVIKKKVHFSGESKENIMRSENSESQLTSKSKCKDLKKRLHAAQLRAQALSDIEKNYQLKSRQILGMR
Protocol: as §1

JAK3 = target: T1, JAK3 (Homo sapiens, UniProt P52333); assay: Kinase selectivity profiling, Janus kinase 3; assay type: biochemical; conditions: 0.1 µM inhibitor, ATP at Km; for inhibition at 0.1 µM: read-out: Percentage inhibition of JAK3
T1 sequence (P52333 1-1124): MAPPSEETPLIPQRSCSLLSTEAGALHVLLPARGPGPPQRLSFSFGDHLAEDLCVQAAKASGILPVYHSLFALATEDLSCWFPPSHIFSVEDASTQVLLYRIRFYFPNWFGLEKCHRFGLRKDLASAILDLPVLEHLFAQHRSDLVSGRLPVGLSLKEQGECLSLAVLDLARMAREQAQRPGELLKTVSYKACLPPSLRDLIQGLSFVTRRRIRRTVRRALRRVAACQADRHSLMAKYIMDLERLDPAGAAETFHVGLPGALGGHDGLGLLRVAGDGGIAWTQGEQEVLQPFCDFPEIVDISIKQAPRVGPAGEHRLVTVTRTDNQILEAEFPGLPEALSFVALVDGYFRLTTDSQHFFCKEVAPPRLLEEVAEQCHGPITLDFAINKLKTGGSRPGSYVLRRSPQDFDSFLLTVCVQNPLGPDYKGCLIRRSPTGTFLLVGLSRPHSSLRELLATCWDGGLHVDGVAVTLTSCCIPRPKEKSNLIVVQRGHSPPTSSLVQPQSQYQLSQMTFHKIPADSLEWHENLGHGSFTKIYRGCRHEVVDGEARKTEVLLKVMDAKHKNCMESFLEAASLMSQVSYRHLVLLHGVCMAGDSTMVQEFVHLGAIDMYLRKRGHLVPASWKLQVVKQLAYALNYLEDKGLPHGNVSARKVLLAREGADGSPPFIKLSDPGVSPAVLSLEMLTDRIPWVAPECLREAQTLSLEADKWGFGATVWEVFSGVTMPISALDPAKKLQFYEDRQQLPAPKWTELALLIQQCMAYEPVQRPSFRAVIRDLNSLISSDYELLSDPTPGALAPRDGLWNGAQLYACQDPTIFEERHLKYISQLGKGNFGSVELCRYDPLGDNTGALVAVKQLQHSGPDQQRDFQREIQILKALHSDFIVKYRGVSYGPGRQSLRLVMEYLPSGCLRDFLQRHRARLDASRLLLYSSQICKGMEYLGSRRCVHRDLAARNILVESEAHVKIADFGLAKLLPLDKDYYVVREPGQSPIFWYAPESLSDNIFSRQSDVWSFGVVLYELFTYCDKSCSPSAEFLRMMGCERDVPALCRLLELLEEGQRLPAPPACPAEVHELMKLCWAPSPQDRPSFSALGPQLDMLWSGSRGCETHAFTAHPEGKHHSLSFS
Protocol: as §1

HCT116 cells [3] = assay: Immunoblotting of CSC, mesenchymal and embryonal stem cell markers in HCT116 cells; assay type: cell-based, human; conditions: HCT116, 3 μM, 48 or 72 h
Protocol: Protein samples were fractionated by SDS–PAGE and blotted onto Immobilon-P membranes (Millipore) as described previously. After incubation with the primary antibodies (listed in Supplementary Table 4) at 4 °C overnight, the blots were detected with the relevant horseradish peroxidase-conjugated anti-mouse or anti-rabbit IgG antibody (Cell Signaling Technology) and Western lighting ECL Pro (PerkinElmer). Signals were visualized with the LAS-4010 system (GE Healthcare). Uncropped versions of the blots in Figs 2e and 3f are shown in Supplementary Fig. 15.

EPHA4 = EPHA4 (Homo sapiens, UniProt P54764); assay: Kinase selectivity profiling, EPH receptor A4; assay type: biochemical; conditions: read-out: Percentage inhibition of EPHA4
Protocol: as §1

Sequence of FGFR1 (P11362 22-822): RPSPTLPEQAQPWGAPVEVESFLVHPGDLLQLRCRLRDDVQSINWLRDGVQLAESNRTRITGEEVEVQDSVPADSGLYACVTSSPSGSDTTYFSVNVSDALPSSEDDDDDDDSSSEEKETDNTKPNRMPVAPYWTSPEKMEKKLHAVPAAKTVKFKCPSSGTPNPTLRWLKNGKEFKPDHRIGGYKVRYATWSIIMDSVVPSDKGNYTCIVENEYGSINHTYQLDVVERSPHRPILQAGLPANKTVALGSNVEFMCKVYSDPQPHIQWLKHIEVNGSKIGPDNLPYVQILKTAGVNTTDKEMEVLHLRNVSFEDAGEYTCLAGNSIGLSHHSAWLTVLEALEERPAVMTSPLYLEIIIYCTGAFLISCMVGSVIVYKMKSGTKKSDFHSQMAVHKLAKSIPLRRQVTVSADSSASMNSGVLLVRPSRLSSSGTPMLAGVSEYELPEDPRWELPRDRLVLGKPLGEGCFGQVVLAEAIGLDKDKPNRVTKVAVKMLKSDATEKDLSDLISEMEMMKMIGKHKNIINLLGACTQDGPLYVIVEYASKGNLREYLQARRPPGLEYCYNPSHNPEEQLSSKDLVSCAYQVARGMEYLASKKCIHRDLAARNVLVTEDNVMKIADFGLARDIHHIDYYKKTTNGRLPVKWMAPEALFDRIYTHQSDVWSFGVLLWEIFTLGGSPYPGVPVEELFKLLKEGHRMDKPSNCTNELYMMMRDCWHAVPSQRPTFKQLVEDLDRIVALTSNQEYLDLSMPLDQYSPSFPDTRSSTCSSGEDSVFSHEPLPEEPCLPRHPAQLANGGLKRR

SMILES | inhibition at 0.1 µM (FGFR1) [%] | tumour formation (HCT116 cells [1]) | inhibition at 0.1 µM (JNK2) [%] | inhibition at 0.1 µM (PAK2) [%] | inhibition at 0.1 µM (CK1ε) [%] | inhibition at 0.1 µM (AMPKα1/β1/γ1) [%] | inhibition at 0.1 µM (DAPK1) [%] | inhibition at 0.1 µM (GSK3β) [%] | inhibition at 0.1 µM (MET) [%] | Percentage inhibition of PDGFRα (PDGFRα; 0.1 µM) [%] | inhibition at 0.1 µM (PDGFRα) [%] | pIC50 [2] | inhibition at 0.1 µM (EPHA2) [%] | inhibition at 0.1 µM (NEK2) [%] | Percentage inhibition of JAK3 (JAK3; 0.1 µM) [%] | inhibition at 0.1 µM (JAK3) [%] | downregulation of expression of putative colorectal CSC markers CD44, CD133, ALDH1 (HCT116 cells [3]) | embryonal stem cell markers (Oct4, Nanog and Sox2) (HCT116 cells [3]) | expression of mesenchymal markers (Slug, Snail, Twist, Smad2 and Vimentin) (HCT116 cells [3]) | inhibition at 0.1 µM (EPHA4) [%]
O[C@H]1CC[C@@H](Oc2cccc3cnc(Nc4ccc5nc[nH]c5c4)nc23)CC1 [NCB-0846, cis-4-(2-(3H-benzo[d]imidazol-5-ylamino)quinazolin-8-yloxy)cyclohexanol] | 32.5 | significantly reduced | 0.3 | -7.8 | -2.8 | 31.5 | 3.7 | 27.7 | 42.1 | 89.0 | > 80 | 6.17 | 13.6 | -3.5 | 96.3 | > 80 | downregulated | not affected | reduced | 5.5
O[C@H]1CC[C@H](Oc2cccc3cnc(Nc4ccc5nc[nH]c5c4)nc23)CC1 [NCB-0970] | 14.4 | not | -3 | -17.4 | -1.6 | 9.3 | 4.7 | 13.5 | 16.1 |  | 45.6 | < 5.52 | 8.7 | -4.5 |  | 85.4 | not |  |  | 2.3
